Laboratory results taken from US9505786B2, “Substituted annulated triazines and use thereof” (BAYER INTELLECTUAL PROPERTY GMBH, priority 2012, dated 2016).

Key:
[1] = target: human phosphodiesterase 5 (PDE 5) (Homo sapiens (Human), UniProt O76074); experiment: Inhibition of human phosphodiesterase 5 (PDE 5), SPA assay; assay type: biochemical; details: PDE 5 preparation from human platelets, [8-3H] cGMP substrate
Description: B-6. Inhibition of Human Phosphodiesterase 5 (PDE 5)
PDE 5 preparations are obtained from human platelets by disruption (Microfluidizer®, 800 bar, 3 passes), followed by centrifugation (75 000 g, 60 min, 4° C.) and ion exchange chromatography of the supernatant on a Mono Q 10/10 column (linear sodium chloride gradient, elution with a 0.2-0.3M solution of sodium chloride in buffer (20 mM Hepes pH 7.2, 2 mM magnesium chloride). Fractions having PDE 5 activity are combined (PDE 5 preparation) and stored at −80° C.
To determine their in vitro action on human PDE 5, the test substances are dissolved in 100% DMSO and serially diluted. Typically, dilution series (1:3) from 200 μM to 0.091 μM are prepared (resulting final concentrations in the test: 4 μM to 0.0018 μM). In each case 2 μl of the diluted substance solutions are placed into the wells of microtitre plates (Isoplate-96/200W; Perkin Elmer). Subsequently, 50 μl of a dilution of the above-described PDE 5 preparation are added. The dilution of the PDE 5 preparation is chosen such that during the later incubation less than 70% of the substrate are converted (typical dilution: 1:100; dilution buffer: 50 mM Tris/hydrochloric acid pH 7.5, 8.3 mM magnesium chloride, 1.7 mM EDTA, 0.2% BSA). The substrate, [8-^3H] cyclic guanosine-3′,5′-monophosphate (1 μCi/μl; Perkin Elmer) is diluted 1:2000 with assay buffer (50 mM tris/hydrochloric acid pH 7.5, 8.3 mM magnesium chloride, 1.7 mM EDTA) to a concentration of 0.0005 μCi/μl. By addition of 50 μl (0.025 μCi) of the diluted substrate, the enzyme reaction is finally started. The test mixtures are incubated at room temperature for 60 min and the reaction is stopped by adding 25 μl of a suspension of 18 mg/ml yttrium scintillation proximity beads in water (phosphodiesterase beads for SPA assays, RPNQ 0150, Perkin Elmer). The microtitre plates are sealed with a film and left to stand at room temperature for 60 min. Subsequently, the plates are analysed for 30 s per well in a Microbeta scintillation counter (Perkin Elmer). IC50 values are determined using the graphic plot of the substance concentration against percentage PDE 5 inhibition.

[2] = tested on: recombinant guanylate cyclase reporter cell line; experiment: Effect on a recombinant guanylate cyclase reporter cell line; assay type: cell-based
Description: B-2. Effect on a Recombinant Guanylate Cyclase Reporter Cell Line
The cellular activity of the compounds according to the invention is determined using a recombinant guanylate cyclase reporter cell line, as described in F. Wunder et al., Anal. Biochem. 339, 104-112 (2005).

SMILES | IC50 [1] [nM] | MEC (minimum effective concentration) [2] [nM]
CCOC(=O)C1(C)C(=O)Nc2nc(-c3nn(Cc4ccccc4F)c4ncccc34)ncc21 (racemic) [Example 33, (rac) Ethyl 2-[1-(2-fluorobenzyl)-1H-pyrazolo[3,4-b]pyridin-3-yl]-5-methyl-6-oxo-6,7-dihydro-5H-pyrrolo[2,3-d]pyrimidine-5-carboxylate] | 870 | 10
COc1ccc(Cn2nc(-c3nnc4c(n3)NC(=O)C4(C)C)c3cc(F)cnc32)cc1 [Example 8, 3-[5-Fluoro-1-(4-methoxybenzyl)-1H-pyrazolo[3,4-b]pyridin-3-yl]-7,7-dimethyl-5,7-dihydro-6H-pyrrolo[2,3-e][1,2,4]triazin-6-one] | 150 | 3000
CCC1(C)C(=O)Nc2nc(-c3nn(Cc4ccccc4F)c4ncc(F)cc34)nnc21 (racemic) [Example 7-1, 7-Ethyl-3-[5-fluoro-1-(2-fluorobenzyl)-1H-pyrazolo[3,4-b]pyridin-3-yl]-7-methyl-5,7-dihydro-6H-pyrrolo[2,3-e][1,2,4]triazin-6-one] |  | 100
CCOC(=O)/C=C/c1nc(-c2nn(Cc3ccccc3F)c3ncccc23)nc2c1C(C)(C)C(=O)N2 [Example 27, Ethyl 3-{2-[1-(2-fluorobenzyl)-1H-pyrazolo[3,4-b]pyridin-3-yl]-5,5-dimethyl-6-oxo-6,7-dihydro-5H-pyrrolo[2,3-d]pyrimidin-4-yl}acrylate] | 215 | 300
CC(C)(O)CCc1nc(-c2nn(Cc3ccccc3F)c3ncccc23)nc2c1C(C)(C)C(=O)N2 [Example 59, 2-[1-(2-Fluorobenzyl)-1H-pyrazolo[3,4-b]pyridin-3-yl]-4-(3-hydroxy-3-methylbutyl)-5,5-dimethyl-5,7-dihydro-6H-pyrrolo[2,3-d]pyrimidin-6-one] |  | 300
CC1(CC(=O)O)C(=O)Nc2nc(-c3nn(Cc4ccccc4F)c4ncccc34)nnc21 (racemic) [Example 26, (rac) {3-[1-(2-Fluorobenzyl)-1H-pyrazolo[3,4-b]pyridin-3-yl]-7-methyl-6-oxo-6,7-dihydro-5H-pyrrolo[2,3-e][1,2,4]triazin-7-yl}acetic acid] | 3400 | 300
Cc1nc(-c2nn(Cc3ccccc3F)c3ncccc23)nc2c1C(C)(C)C(=O)N2 [Example 22, 2-[1-(2-Fluorobenzyl)-1H-pyrazolo[3,4-b]pyridin-3-yl]-4,5,5-trimethyl-5,7-dihydro-6H-pyrrolo[2,3-d]pyrimidin-6-one] | 130 | 100
Cc1nc2c(cc1F)c(-c1nnc3c(n1)NC(=O)C3(C)C)nn2Cc1ccccc1F [Example 21, 3-[5-Fluoro-1-(2-fluorobenzyl)-6-methyl-1H-pyrazolo[3,4-b]pyridin-3-yl]-7,7-dimethyl-5,7-dihydro-6H-pyrrolo[2,3-e][1,2,4]triazin-6-one] | 22 | 30
CC1(CC2CC2)C(=O)Nc2nc(-c3nn(Cc4ccccc4F)c4ncc(F)cc34)nnc21 (racemic) [Example 5-1, 7-(Cyclopropylmethyl)-3-[5-fluoro-1-(2-fluorobenzyl)-1H-pyrazolo[3,4-b]pyridin-3-yl]-7-methyl-5,7-dihydro-6H-pyrrolo[2,3-e][1,2,4]triazin-6-one] |  | 100
CC1(CC2CC2)C(=O)Nc2nc(-c3nn(Cc4ccccc4F)c4ncc(F)cc34)nnc21 (racemic) [Example 5-2, 7-(Cyclopropylmethyl)-3-[5-fluoro-1-(2-fluorobenzyl)-1H-pyrazolo[3,4-b]pyridin-3-yl]-7-methyl-5,7-dihydro-6H-pyrrolo[2,3-e][1,2,4]triazin-6-one] |  | 300
C=CCCC1(C)C(=O)Nc2nc(-c3nn(Cc4ccccc4F)c4ncccc34)nnc21 (racemic) [Example 23, (rac) (7S)-7-(But-3-en-1-yl)-3-[1-(2-fluorobenzyl)-1H-pyrazolo[3,4-b]pyridin-3-yl]-7-methyl-5,7-dihydro-6H-pyrrolo[2,3-e][1,2,4]triazin-6-one] | 140 | 30
CCOC(=O)C1(C)CC(=O)Nc2nc(-c3nn(Cc4ccccc4F)c4ncccc34)nnc21 (centres unmarked) [Example 2, Ethyl 3-[1-(2-fluorobenzyl)-1H-pyrazolo[3,4-b]pyridin-3-yl]-8-methyl-6-oxo-5,6,7,8-tetrahydropyrido[2,3-e][1,2,4]triazine-8-carboxylate] | 490 | 300
CCOC(=O)C1C(=O)Nc2nc(-c3nn(Cc4ccccc4F)c4ncccc34)nnc21 (racemic) [Example 25, (rac) Ethyl 3-[1-(2-fluorobenzyl)-1H-pyrazolo[3,4-b]pyridin-3-yl]-6-oxo-6,7-dihydro-5H-pyrrolo[2,3-e][1,2,4]triazine-7-carboxylate] | 1500 | 100
CCC1(C)C(=O)Nc2nc(-c3nn(Cc4ccccc4F)c4ncc(F)cc34)nnc21 (racemic) [Example 7-2, 7-Ethyl-3-[5-fluoro-1-(2-fluorobenzyl)-1H-pyrazolo[3,4-b]pyridin-3-yl]-7-methyl-5,7-dihydro-6H-pyrrolo[2,3-e][1,2,4]triazin-6-one] |  | 100
CC1(C)C(=O)Nc2nc(-c3nn(Cc4ccccc4F)c4ncc(F)cc34)nc(CNS(=O)(=O)C3CC3)c21 [Example 55, N-({2-[5-Fluoro-1-(2-fluorobenzyl)-1H-pyrazolo[3,4-b]pyridin-3-yl]-5,5-dimethyl-6-oxo-6,7-dihydro-5H-pyrrolo[2,3-d]pyrimidin-4-yl}methyl)cyclopropanesulphonamide] | 190 | 30
CC(C)(C)OC(=O)C#Cc1nc(-c2nn(Cc3ccccc3F)c3ncccc23)nc2c1C(C)(C)C(=O)N2 [Example 50, tert-Butyl 3-{2-[1-(2-fluorobenzyl)-1H-pyrazolo[3,4-b]pyridin-3-yl]-5,5-dimethyl-6-oxo-6,7-dihydro-5H-pyrrolo[2,3-d]pyrimidin-4-yl}prop-2-ynoate] |  | 300
CCOC(=O)C#Cc1nc(-c2nn(Cc3ccccc3F)c3ncccc23)nc2c1C(C)(C)C(=O)N2 [Example 53, Ethyl 3-{2-[1-(2-fluorobenzyl)-1H-pyrazolo[3,4-b]pyridin-3-yl]-5,5-dimethyl-6-oxo-6,7-dihydro-5H-pyrrolo[2,3-d]pyrimidin-4-yl}prop-2-ynoate] | 41 | 100
CC1(C(=O)NC2CC2)C(=O)Nc2nc(-c3nn(CCC(F)(F)F)c4ncccc34)ncc21 (racemic) [Example 49, (rac) N-Cyclopropyl-5-methyl-6-oxo-2-[1-(3,3,3-trifluoropropyl)-1H-pyrazolo[3,4-b]pyridin-3-yl]-6,7-dihydro-5H-pyrrolo[2,3-d]pyrimidine-5-carboxamide] | 4000 | 300
CC1(C)C(=O)Nc2nc(-c3nn(Cc4ccccc4F)c4ncc(F)cc34)nc(CN3CCCC3=O)c21 [Example 54, 2-[5-Fluoro-1-(2-fluorobenzyl)-1H-pyrazolo[3,4-b]pyridin-3-yl]-5,5-dimethyl-4-[(2-oxopyrrolidin-1-yl)methyl]-5,7-dihydro-6H-pyrrolo[2,3-d]pyrimidin-6-one] | 145 | 100
CC1(C)C(=O)Nc2nc(-c3nn(Cc4ccccc4F)c4ncccc34)nc(Cl)c21 [Example 60, 4-Chloro-2-[1-(2-fluorobenzyl)-1H-pyrazolo[3,4-b]pyridin-3-yl]-5,5-dimethyl-5,7-dihydro-6H-pyrrolo[2,3-d]pyrimidin-6-one] |  | 300
CC1(C)C(=O)Nc2nc(-c3nn(Cc4ccccc4F)c4ncccc34)nc(C#CC(=O)O)c21 [Example 62, 3-{2-[1-(2-Fluorobenzyl)-1H-pyrazolo[3,4-b]pyridin-3-yl]-5,5-dimethyl-6-oxo-6,7-dihydro-5H-pyrrolo[2,3-d]pyrimidin-4-yl}prop-2-ynoic acid] |  | 30
CC1(C)C(=O)Nc2nc(-c3nn(Cc4ccccc4F)c4ncc(F)cc34)nc(CNC(=O)C3CC3)c21 [Example 56, N-({2-[5-Fluoro-1-(2-fluorobenzyl)-1H-pyrazolo[3,4-b]pyridin-3-yl]-5,5-dimethyl-6-oxo-6,7-dihydro-5H-pyrrolo[2,3-d]pyrimidin-4-yl}methyl)cyclopropanecarboxamide] |  | 30
